What was measured:
[1] = molecular target: T1, angiotensin II AT1 receptor (Oryctolagus cuniculus, UniProt P34976); test: Ex vivo agonist/antagonist activity on isolated rabbit thoracic aorta rings; conditions: 0.3, 3 and 30 μM; for agonist activity (contraction): non-treated rabbit thoracic aorta; for antagonist activity (inhibition of contractile response to angiotensin II): rabbit thoracic aorta previously exposed to angiotensin II 0.003 μM
T1 construct: tissue CEREP; host or cells: rabbit thoracic aorta rings
T1 sequence (P34976 1-359): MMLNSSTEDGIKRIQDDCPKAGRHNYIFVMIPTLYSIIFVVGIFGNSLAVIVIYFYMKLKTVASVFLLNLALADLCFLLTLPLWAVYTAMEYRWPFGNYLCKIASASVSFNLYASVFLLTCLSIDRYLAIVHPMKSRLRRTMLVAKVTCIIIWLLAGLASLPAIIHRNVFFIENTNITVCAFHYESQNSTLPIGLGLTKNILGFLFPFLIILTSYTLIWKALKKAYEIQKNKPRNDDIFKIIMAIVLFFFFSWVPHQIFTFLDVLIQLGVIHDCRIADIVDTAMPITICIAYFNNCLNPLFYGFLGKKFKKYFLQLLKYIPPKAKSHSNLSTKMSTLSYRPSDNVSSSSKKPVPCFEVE
Experimental: This activity is either agonist or antagonist and was evaluated ex vivo on isolated organs. Agonist activity corresponds to tissue contraction. Antagonist activity corresponds to tissue dilatation.
The ex vivo test was performed at the CEREP (Celle L'Evescault, France (86)) following a protocol based on Pendleton et al. (Pendleton R G et al.,1989). Rabbit thoracic aorta rings with intact endothelium were suspended in baths for organs containing an oxygenated physiologic saline solution (95% O2 and 5% CO2) and preheated (37° C.) having the following composition (mM): NaCl 118.0, KCl 4.7, MgSO4 1.2, CaCl2 2.5, KH2PO4 1.2, NaHCO3 25.0, and glucose 11.0 (pH 7.4).
Benextramine (1 μM), propranolol (1 μM), pyrilamine (1 μM), atropine (1 μM), methysergide (1 μM), and captopril (0.1 μM) were also used in all carried out experiments to block respectively α-adrenergic, β-adrenergic, histaminic H1 muscarinic, and 5-HT2 receptors as well as to prevent peptide degradation. The tissues were bound to a force sensor suitable for isometric tension recording. They were stretched to a resting tension of 4 g, then stabilized for 60 minutes. During the stabilization, they were washed several times and the tension was adjusted. The experiments were carried out using semi-automatic systems of isolated organs with eight organ baths and multichannel data acquisition.
The tissues were exposed to a submaximal concentration of the reference agonist (angiotensin II at 0.003 μM) to verify the response and obtain a control contractile response.
After several washing operations and after having recovered the basal tone, the tissues were exposed to increasing concentrations of compounds according to the invention or the same agonist. The different concentrations were added cumulatively, each one was left in contact with the tissues until a stable response was reached and for a maximum of 30 minutes. If an agonist type response (contraction) was registered, the reference antagonist (Saralasine at 0.01 μM) was tested regarding the highest concentration of the compounds according to the invention to confirm the involvement of the AT1 receptors in the response.
After stabilization of the contraction induced by angiotensin II, increasing concentrations of compounds according to the invention or of the reference antagonist (Saralasine) were added cumulatively. Each concentration was left in contact with the tissues until a stable response was observed and for a maximum of 30 minutes.
The inhibiting effect of the compounds according to the invention on the contraction induced by the angiotensin 11 indicates antagonist activity on AT1 receptors.

hPPARα = molecular target: T2, hPPARα (Homo sapiens, UniProt Q07869); test: Gal4-hPPARα transactivation in COS-7 cells (luciferase); type: cell-based; conditions: COS-7 cells transfected pGal4-hPPAR, 0.01 to 100 μM
T2 construct: DNA fragments amplified by PCR and corresponding to the DEF domains of human PPARα, PPARγ, and PPARδ nuclear receptors; expressed in transfected cells; host or cells: COS-7
T2 sequence (Q07869 239-466 limits assumed): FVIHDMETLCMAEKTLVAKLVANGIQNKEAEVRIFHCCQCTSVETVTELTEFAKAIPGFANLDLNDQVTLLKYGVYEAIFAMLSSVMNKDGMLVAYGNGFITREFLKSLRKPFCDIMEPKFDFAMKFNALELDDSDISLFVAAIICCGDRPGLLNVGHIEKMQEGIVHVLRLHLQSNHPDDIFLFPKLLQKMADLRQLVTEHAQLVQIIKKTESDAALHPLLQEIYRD
Experimental: (§1) The activation of PPARs was evaluated in vitro using a monkey kidney fibroblast line (COS-7) by measuring the transcriptional activity of chimeras made up of the DNA binding domain of the Gal4 transcription factor of yeast and of the binding domain to the ligand of the different PPARs. The compounds were tested at doses of between 0.01 and 100 μM on Gal4-PPARα, γ, and δ chimeras.
(§2) COS-7 cells came from ATCC (American type culture collection) and were cultivated in a DMEM medium supplemented with 10% (vol/vol) of fetal calf serum, 100 U/ml of penicillin (Gibco, Paisley, UK) and 2 mM of L-Glutamine (Gibco, Paisley, UK). The cells were incubated at 37° C. under humid atmosphere containing 5% CO2.
(§3) The plasmids Gal4(RE)_TkpGL3, pGal4-hPPARα, pGal4-hPPARγ, pGal4-hPPARδ and pGal4-φ have been described in the literature (Raspe E et al., 1999). The constructions pGal4-hPPARα, pGal4-hPPARγ, and pGal4-hPPARδ were obtained by cloning, in the pGal4-φ vector, DNA fragments amplified by PCR and corresponding to the DEF domains of human PPARα, PPARγ, and PPARδ nuclear receptors.
(§4) The COS-7 cells in suspension were transfected with 150 ng of DNA per well, with a pGal4-PPAR/Gal4(RE)_TkpGL3 ratio of 1/10, in presence of 10% fetal calf serum. The cells were then plated in 96-well plates (4×10^4 cells/well), then incubated for 24 hours at 37° C. Activation with the test compounds was performed for 24 hours at 37° C. in a medium without serum. At the end of the experiment, the cells were lysed and the luciferase activity was determined using the Steady-Lite™ HTS (Perkin Elmert) or the Steady Glow Luciferase kit (Promega), in accordance with the provider's recommendations.
(§5) The compounds according to the invention were tested at doses between 0,01 and 100 μM on the 3 PPAR isoforms. The results obtained are presented in detail under FIG. 1a.

hPPARγ = molecular target: T3, hPPARγ (Homo sapiens, UniProt P37231); test: Gal4-hPPARγ transactivation in COS-7 cells (luciferase); type: cell-based; conditions: COS-7 cells transfected pGal4-hPPAR, 0.01 to 100 μM
T3 construct: DNA fragments amplified by PCR and corresponding to the DEF domains of human PPARα, PPARγ, and PPARδ nuclear receptors; expressed in transfected cells; host or cells: COS-7
T3 sequence (P37231 238-503 limits assumed): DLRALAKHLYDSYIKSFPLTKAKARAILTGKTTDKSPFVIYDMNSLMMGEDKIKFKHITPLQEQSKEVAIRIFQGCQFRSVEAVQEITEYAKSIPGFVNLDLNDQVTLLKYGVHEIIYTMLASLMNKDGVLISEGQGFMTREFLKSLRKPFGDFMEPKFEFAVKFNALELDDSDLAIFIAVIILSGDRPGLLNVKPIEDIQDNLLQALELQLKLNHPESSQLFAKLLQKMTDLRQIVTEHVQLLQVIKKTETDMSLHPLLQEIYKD
Experimental: as §1, §2, §3, §4, §5

PPARs target genes = test: Expression of PPAR target genes by quantitative RT-PCR in db/db mouse tissue; type: in vivo; conditions: db/db mice, 50 mpk for 28 days
Experimental: Samples of hepatic tissue and adipose epididymal tissue were taken and frozen immediately in liquid nitrogen then conserved at −80° C. for later analysis.
Total RNA was extracted from liver fragments by using a NucleoSpine 96 RNA kit (Macherey Nagel, Hoerdt, France) according to the manufacturer's instructions.
The total RNA of the adipose tissue was extracted from tissue fragments with a method using guanidine thiocyanate. The tissues were briefly homogenized in 5 mL of a lysis buffer (guanidine thiocyanate 4M, EDTA pH8 10 mM, Tris HCl pH 7.5 50 mM and b-mercaptoethanol 1.4%) using polytron. To separate the layers, 500 μL of sodium acetate 2M pH4, 5 mL of phenol, and 2 mL of a mixture of chloroform/isoamylic alcohol (49:1) were added. After centrifugation, the aqueous layer was collected and the RNA was precipitated in the presence of isopropanol. After a second precipitation, the RNA was washed with ethanol 70°, dried, then suspended again in an volume of water free of RNase. A step of purification/DNase I treatment of the RNA was then carried out by using NucleoSpin® 96 RNA kit (Macherey-Nagel) according to the manufacturer's instructions. 1 μg of total RNA (quantified by using the Ribogreen RNA quantification kit (Molecular Probes)) was then reverse-transcribed into cDNA by means of a 1 hour reaction at 37° C. in a total volume of 20 μl containing a buffer 1× (Sigma), 1.5 mM of DTT, 0.18 mM, of dNTPs (Promega), 200 ng of pdN6 (Amersham), 30 U of RNase inhibitor (Sigma), and 1 μl of MMLV-RT (Sigma). The quantitative PCR experiments were carried out using the MyiQ Single-Color Real-Time PCR Detection System (Biorad, Marnes-la-Coquette, France) and were performed using the iQ SYBR Green Supermix kit according to the manufacturer's recommendations, in 96-well plates in 5 μl of a diluted reverse transcription solution at a hybridization temperature of 55° C. Primer pairs specific to the studied genes were used:
The quantity of emitted fluorescence is directly proportional to the quantity of cDNA present at the beginning of the reaction and amplified during the PCR. For each target studied, a range of solutions is performed with successive dilutions of a mixture made up of a few μl of different reverse-transcription solutions. The relative levels of expression of each target are thus determined by using efficiency curves obtained with the points relative to the range.
The expression levels of the genes of interest were then normalized, in the hepatic tissue with respect to the level expression of reference gene 36B4 (whose specific primers are: sense primer: 5′-[…]-3′ (SEQ ID NO: 15) and antisense primer: 5′-[…]-3′ (SEQ ID NO: 16)), and in the adipose tissue with respect to reference gene 18S (whose specific primers are: sense primer: 5′-[…]-3′ (SEQ ID NO: 17) and antisense primer: 5′-[…]-3′ (SEQ ID NO: 18)). The induction factor was then calculated for each sample. The higher the induction factor is, the more the compound promotes gene expression. The final result is represented as the average of the induction values within each experimental group.

agonist activity (contraction) [1] | melting point [°C] | activation of hPPARα (luciferase activity) (hPPARα) | activation of hPPARγ (luciferase activity) (hPPARγ) | SMILES | antagonist activity (inhibition of contractile response to angiotensin II) [1] | hepatic expression of the gene coding for CPT1 b (PPARs target genes) | hepatic expression of the gene coding for PDK-4 (PPARs target genes) | expression of the gene coding for ApoCIII (PPARs target genes; liver) | expression of the gene coding for FBb (PPARs target genes; liver)
do not induce contraction | 85 | – | – | CCCCC1=NC2(CCCCC2)C(=O)N1Cc1ccc(-c2cccc(OC(C)C(=O)O)c2)cc1 (centres unmarked) [Compound 53] | inhibiting effect of the contractile response of the reference agonist | – | – | – | –
– | 75 to 77 | activates only hPPARα | activates only hPPARα | CCCCC1=NC2(CCCCC2)C(=O)N1Cc1ccc(-c2ccc(OC(C)(C)C(=O)O)cc2)cc1 [Compound 25, 2-butyl-1-[(4′-((1-carboxy-1,1-dimethylmethyl)oxy)biphenyl-4-yl)methyl]-4-spirocyclohexyl-1H-imidazol-5(4H)-one] | – | – | – | – | –
– | 180 | – | – | CCCCC1=NC2(CCCC2)C(=O)N1Cc1ccc(-c2ccc(OC(C)(C)C(=O)O)cc2)cc1 [Compound 2, 2-butyl-1-[(4′-((1-carboxy-1,1-dimethylmethyl)oxy)biphenyl-4-yl)methyl]-4-spirocyclopentyl-1H-imidazol-5(4H)-one] | – | significant increase | significant increase | significant decrease | significant decrease
do not induce contraction | 143 | – | – | CCCCC1=NC2(CCCC2)C(=O)N1Cc1ccc(-c2cc(OC(C)(C)C(=O)O)ccc2CC)cc1 [Compound 80, 2-butyl-1-[(3′-((1-carboxy-1,1-dimethylmethyl)oxy)-6′-ethyl-biphenyl-4-yl)methyl]-4-spirocyclopentyl-1H-imidazol-5(4H)-one] | inhibiting effect of the contractile response of the reference agonist | – | – | – | –

Reference: US20100004159A1, “SUBSTITUTED IMIDAZOLONE DERIVATIVES, PREPARATIONS AND USES” (GENFIT, priority 2006, published 2010)
